Laboratory results from US20240299362A1, “EXOSOME PACKAGING AND TARGETED AUTOPHAGY” (University of Ottawa, priority 2017, published 2024).
No end group written: not given here. *: point of attachment. Biotin = O=C1N[C@H]2[C@H](CS[C@H]2CCCCC(=O)*)N1

Tests used:
[1] = test system: exosomes; test: Packaging of LC3 fusion proteins into exosomes (luciferase light, Western blot of exosomes); type: cell-based
Excerpt: FIG. 28 D and E show Western blots of exosomes transfected with Luciferase or Luciferase-LC3 fusion (D), or dsRed or dsRed-LC3 fusion (E). […] The scFv in this experiment was anti-TDP-43 VH7 antibody scFv. Detection of the fusion was by Western blot with anti-LC3 antibody or antibody vs. HA tag incorporated into the linker region in the fusion. […] In FIG. 29 C, expression of scFv-LC3 construct in cells was achieved using lentivirus. […] In FIG. 29 C, cells were expressing anti-TDP-43 antibody scFv clone Vh7. […] The inventors hypothesized that exosomes may deliver intrabody-LC3 chimeras with high efficiency to tissues like liver, small intestine and kidney (IV), and if injected (for example) into the spinal cord (as ASOs or AAV in patients in neurodegeneration), throughout the spinal cord and the brain. […]
Nucleic acids encoding the fusion constructs were stably transduced into cells using lentivirus to generate stable expression using the CMV promoter. […] After this time point cells were lysed and levels of cytoplasmic TDP-43 were measured by western blot after elimination of nuclei. […]
The data are for 3 scFv fused to LC3 derived from anti-TDP-43 VH7, anti-TDP-43 41D1, and anti-Tau 4E4. […] Cells were transduced with scFv-LC3 conjugates, and exosomes were purified from these and analyzed by Western blot. […]

[2] = test system: recombinant LC3; settings: competitive excess of peptide; cell lysate
Description: In brief, 0.5 μg of His-tagged recombinant LC3 (His-tag, Cat #ADI-APR-100-0200, Enzo Life Sciences) was rotated in 50 μl with 5 μl of His-tagged Dynabeads (Cat #10103D, Thermofisher) in a binding/wash buffer (50 mM Sodium Phosphate, pH 8.0, 150 mM NaCl, 0.01% Tween®-20, 0.5% Triton X-100) at room temperature (RT) for 10 min. Then 150 μl of binding/wash buffer containing 5% BSA was added to the tubes and rotated for 5 minutes. Tubes were placed on a magnet and supernatant discarded. Cell lysate (100 ul, 150 ug) collected in Pull-down Buffer (3.25 mM Sodium phosphate pH 7.4, 70 mM NaCl, 0.01% Tween®-20, 0.5% Triton X-100) was incubated on a roller for 10 min. Supernatant was discarded and beads were washed 4 times with 300 μl Binding/Wash Buffer. His-LC3 was eluted with 150 mM Imidazole, 50 mM Sodium phosphate pH 8.0, 300 mM NaCl, 0.01% Tween®-20 with gentle shaking for 5 min. Supernatants were separated from beads on a magnet. The median intensities of bands for p62, ATP6V1E1 and background were quantified over 3 independent experiments using ImageQuantTL (GE Healthcare).
Experiments with competitive peptides were performed as above, except 50 μmoles of peptide was added during incubation with cell lysate. […] (SEQ ID NO: 20).

[3] = test system: recombinant LC3; settings: 10 nmoles peptide, 100 ng recombinant LC3
Description: (SEQ ID NO: 20). Fifteen μl of Dynabeads® MyOne™ Streptavidin T1 (Cat #65601, ThermoFisher) were washed with PBS, then 10 nmoles of biotinylated peptides and 100 ng of recombinant LC3 were added. The mixture was rotated at 4 C over night. The beads were then washed with PBS 3 times and collected for further western analysis.

[4] = test system: Atg5^−/− MEF; test: Exosome production (nanoparticle tracking, dynamic light scattering, Western blot), Example 1; type: cell-based, mouse; settings: Chloroquine 100 μM 16 h, NH4Cl 20 mM 30 min, Concanamycin, siRNA
Description: Exosomes were enriched by differential centrifugation as previously described (Thery et al., 2006). Briefly, cells were cultured in media containing 10% FBS previously depleted of exosomes by centrifugation at 100 000 g for 16 h (Thery et al., 2006). To purify exosomes, supernatant from cell cultures was centrifuged at 300 g (10 min), 2000 g (10 min) and 10,000 g (30 min, SW32 rotor). At each step the supernatant was recovered. After centrifugation at 100 000 g (1 h 10 min, SW32 rotor) the supernatant was removed and the pellet was resuspended. The pellet was washed in PBS by a final centrifugation at 100 000 g (20 min, TLA100.3 rotor). The exosome-enriched pellet was re-suspended in PBS for further analyses.
Preparations of enriched exosomes were analyzed using either a Nanosight (FIG. 1A,C) or a ParticleMetrix Zetaview Nanoparticle tracking instrument (all other graphs). […]
The Zeta View Nanoparticle Tracking instrument (ParticleMetrix) is calibrated for experiments following every instrument start-up. […] If the sample falls within the acceptable reading concentration range, video acquisition and analysis was performed using the following parameters. Acquisition Parameters: Sensitivity (85), Shutter speed (40), Frame rate per second (30), Resolution (Highest), Positions measured (11). […]
The analysis reports containing the particle size (nm) and concentration (particles/ml) were generated automatically. The particles between 45 nm and 105 nm were summed to quantify exosome-sized particles. In experiments in FIG. 5N,O measuring exosome production after treating cells with NH4Cl or Chloroquine for short time periods, background readings from exosome-depleted media alone were subtracted. […]

[5] = target: T1, V0-ATPase complex (Mus musculus, UniProt P63082); test: Lysotracker staining of cells with V0-ATPase inhibitors; type: cell-based; settings: MEF; 12 h treatment
T1 construct: endogenous in cells; MEF inferred)
T1 sequence (P51863 whole entry): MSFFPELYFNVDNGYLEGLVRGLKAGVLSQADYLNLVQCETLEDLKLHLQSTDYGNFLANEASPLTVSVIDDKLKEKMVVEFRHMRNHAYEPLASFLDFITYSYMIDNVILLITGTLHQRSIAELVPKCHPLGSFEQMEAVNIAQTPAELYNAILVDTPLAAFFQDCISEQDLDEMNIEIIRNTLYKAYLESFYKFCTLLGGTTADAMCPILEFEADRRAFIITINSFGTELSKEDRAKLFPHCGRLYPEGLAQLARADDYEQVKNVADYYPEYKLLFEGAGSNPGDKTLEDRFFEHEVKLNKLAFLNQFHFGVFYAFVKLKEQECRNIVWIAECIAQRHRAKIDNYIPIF
T1 sequence (Q9Z1G4 whole entry, further chain): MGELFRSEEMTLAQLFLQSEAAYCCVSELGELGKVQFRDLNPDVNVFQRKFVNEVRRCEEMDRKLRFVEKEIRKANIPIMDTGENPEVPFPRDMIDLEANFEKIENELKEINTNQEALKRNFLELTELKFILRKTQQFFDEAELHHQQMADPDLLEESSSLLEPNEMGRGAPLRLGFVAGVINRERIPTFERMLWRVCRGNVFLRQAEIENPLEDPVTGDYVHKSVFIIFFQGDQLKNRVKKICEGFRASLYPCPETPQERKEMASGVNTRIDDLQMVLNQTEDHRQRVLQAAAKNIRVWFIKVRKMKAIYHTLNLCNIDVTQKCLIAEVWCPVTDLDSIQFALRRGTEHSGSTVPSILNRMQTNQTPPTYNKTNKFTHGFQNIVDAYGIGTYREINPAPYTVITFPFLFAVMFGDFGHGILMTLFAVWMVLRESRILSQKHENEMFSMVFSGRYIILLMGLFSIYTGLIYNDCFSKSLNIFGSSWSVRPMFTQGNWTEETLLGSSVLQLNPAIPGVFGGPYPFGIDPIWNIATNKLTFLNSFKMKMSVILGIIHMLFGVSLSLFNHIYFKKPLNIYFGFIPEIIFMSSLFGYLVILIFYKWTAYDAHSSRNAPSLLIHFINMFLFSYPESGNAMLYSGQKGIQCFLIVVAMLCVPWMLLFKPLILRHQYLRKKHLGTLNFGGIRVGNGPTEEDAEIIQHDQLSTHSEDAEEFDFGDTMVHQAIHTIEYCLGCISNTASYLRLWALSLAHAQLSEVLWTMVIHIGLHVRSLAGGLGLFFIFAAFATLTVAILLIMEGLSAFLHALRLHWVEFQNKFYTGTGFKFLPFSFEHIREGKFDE
T1 sequence (Q91V37 whole entry, further chain): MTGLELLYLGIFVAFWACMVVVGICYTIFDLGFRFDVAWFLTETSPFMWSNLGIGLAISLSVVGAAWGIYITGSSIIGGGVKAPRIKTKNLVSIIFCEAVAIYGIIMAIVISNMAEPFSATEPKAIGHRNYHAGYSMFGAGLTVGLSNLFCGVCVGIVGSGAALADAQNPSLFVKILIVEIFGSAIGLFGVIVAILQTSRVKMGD
T1 sequence (P63082 whole entry): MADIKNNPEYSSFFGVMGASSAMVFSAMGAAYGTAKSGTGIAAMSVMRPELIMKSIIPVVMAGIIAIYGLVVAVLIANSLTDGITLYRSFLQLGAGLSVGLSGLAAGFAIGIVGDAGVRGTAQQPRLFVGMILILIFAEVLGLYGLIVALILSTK
Excerpt: If increased MVB acidification in Atg5^−/− cells causes the drop in exosome release, blocking acidification of MVB may promote exosome release.

[6] = test system: Atg5^−/− MEF; test: Exosome production (dynamic light scattering, Western blot), Example 2; type: cell-based, mouse; settings: BAF or ConA 12 h
Description: (§1) Exosomes were enriched by differential centrifugation as previously described (Thery et al., 2006). Briefly, MEF or MDA-MB-231 cells were cultured in media containing FBS depleted of exosomes by centrifugation at 100,000 g for 16 h (Thery et al., 2006). To purify exosomes supernatant from cell cultures was centrifuged at 400 g (7 min), 2000 g (10 min) and 10,000 g (30 min, SW32 rotor). At each step the supernatant was recovered. After centrifugation at 100,000 g (1 h 10 min, SW32 rotor) the supernatant was removed and the pellet was resuspended. The pellet was washed in PBS by a final centrifugation at 100,000 g (20 min, TLA100.3 rotor). The exosome-enriched pellet was re-suspended in PBS for further analyses.
(§2) Preparations of enriched exosomes were analyzed by dynamic light scattering on a Protein Solutions Dynapro Instrument using Dynamics V6 software. Data were acquired every 10 seconds at 4° C. and 10% laser power for at least 200 seconds per sample. The intensity (Cnt/s) and size (nm) were generated automatically by the instrument.
Preparations of enriched exosomes were analyzed using a Nanosight LM10 instrument with Nanoparticle Tracking Analysis software Version 2.3. Measurement temperature was 22° C. and time setting was 90 seconds. The analysis conditions were set as: Blur 3×3, Detection Threshold 3, Min Track Length 9, and Min Expected Size 30 nm. […]

[7] = test system: stress granules (G3BP1+); test: Stress granules remaining with scFv-LC3 fusion with or without mTOR inhibitor INK128; type: cell-based; settings: arsenite 1 h, recovery 30 min, G3BP1+ staining
Description: Nucleic acids encoding the fusion constructs were stably transduced into cells using lentivirus to generate stable expression using the CMV promoter. Cells were cultured in Lonza Ultraculture medium for 24 h and exosomes were harvested by tangential flow filtration concentration and dialysis on a 750 kDa pore size. Exosomes were then incubated with target cells between 2-24 h. After this time point cells were lysed and levels of cytoplasmic TDP-43 were measured by western blot after elimination of nuclei. […] for 30 min and cells were fixed for immunofluorescence to measure the persistence of stress granules using antibodies targeting G3BP1, PABP or DDX3. The number of stress granules were compared to fusions like scFv VH7 with and without LC3. In some experiments cells were pre-treated for 2-24 h with mTOR inhibitors to induce autophagy.
Experiments were performed to assess whether elimination of anti-TDP-43 VH7 scFv targets by autophagy, triggered by scFv-LC3 fusion constructs, could be further enhanced by treatment with an autophagy-activating agent. In this example, mTOR inhibitor INK128 was used as the autophagy-activating agent.
Cells were transfected with scFv versus TDP-43 fused to LC3, and treated or not treated with the mTOR inhibitor INK128 to assess autophagy activation. […]

[8] = test system: wild-type MEF; test: Exosome production (dynamic light scattering, Western blot) with pp242; type: cell-based, mouse; settings: pp242 1 μM
Description: as §1, §2

Compound: HJ8.5-LC3a: anti-Tau scFv HJ8.5 fused via linker and HA tag to LC3a (SEQ ID NO: 57)
- packaging of construct into exosomes [1]: packaged into exosomes

Compound: Biotin-RCRKQDFPLVKA [putative ATP6V1E1 LIR motif peptide]
- competition of ATP6V1E1 pulldown by recombinant LC3 [2]: did not affect binding
- competition of p62 pulldown by recombinant LC3 [2]: did not affect binding
- pulldown of recombinant LC3 by biotinylated peptide [3]: bound at background levels

Compound: Concanamycin A
- exosome production in Atg5^−/− cells [4]: rescued exosome production
- staining of cells with Lysotracker [5]: abrogated staining of cells with Lysotracker
- exosome production of Atg5^−/− cells [6]: restored exosome production

Compound: Cl.N [NH4Cl]
- exosome production in Atg5^−/− cells [4]: rescued exosome production

Compound: CC(C)n1nc(-c2ccc3oc(N)nc3c2)c2c(N)ncnc21 [INK128]
- % of stress granules remaining [7]: did not have a measureable effect

Compound: CC(C)n1nc(-c2cc3cc(O)ccc3[nH]2)c2c(N)ncnc21 [pp242]
- exosome production [8]: increased exosome production

Compound: Biotin-RCRKAILPLQKA [control mutated peptide]
- pulldown of recombinant LC3 by biotinylated peptide [3]: bound at background levels

Compound: CCN(CC)CCCC(C)Nc1ccnc2cc(Cl)ccc12 (centres unmarked) [Chloroquine]
- exosome production in Atg5^−/− cells [4]: rescued exosome production

Compound: biotin-SGGDDDWTHLSS [p62 LIR motif peptide]
- competition of ATP6V1E1 pulldown by recombinant LC3 [2]: had no effect
- competition of p62 pulldown by recombinant LC3 [2]: competed with endogenous p62 binding
- pulldown of recombinant LC3 by biotinylated peptide [3]: pulled down recombinant LC3

Compound: CO/C1=C\C(C)=C\[C@@H](C)[C@@H](O)[C@@H](C)C/C(C)=C/C=C/[C@H](OC)[C@@H]([C@@H](C)[C@@H](O)[C@H](C)[C@@]2(O)C[C@@H](O)[C@H](C)[C@@H](C(C)C)O2)OC1=O [Bafilomycin A1]
- staining of cells with Lysotracker [5]: abrogated staining of cells with Lysotracker
- exosome production of Atg5^−/− cells [6]: restored exosome production
